Consider nine molecules from ChEMBL document CHEMBL4804285, “Small molecule inhibitors of cdk12/cdk13” (2019).

The target of data set [1] is Casein kinase I isoform delta (Homo sapiens, UniProt P48730). The data set can be described thus: Inhibition of casein kinase 1delta (unknown origin).
For data set [2], the target named is T1, Cyclin-dependent kinase 13 (Homo sapiens, UniProt Q14004). The data set can be described thus: Binding affinity towards CDK13 (unknown origin) by Discover X assay.
Data set [3] deals with Cyclin-dependent kinase 12 (Homo sapiens, UniProt Q9NYV4). The data set can be described thus: Binding affinity towards CDK12 (unknown origin) by Discover X assay.
The target of a further data set is T2, Cytochrome P450 1A2 (Homo sapiens, UniProt P05177).
T2 sequence (P05177 whole entry): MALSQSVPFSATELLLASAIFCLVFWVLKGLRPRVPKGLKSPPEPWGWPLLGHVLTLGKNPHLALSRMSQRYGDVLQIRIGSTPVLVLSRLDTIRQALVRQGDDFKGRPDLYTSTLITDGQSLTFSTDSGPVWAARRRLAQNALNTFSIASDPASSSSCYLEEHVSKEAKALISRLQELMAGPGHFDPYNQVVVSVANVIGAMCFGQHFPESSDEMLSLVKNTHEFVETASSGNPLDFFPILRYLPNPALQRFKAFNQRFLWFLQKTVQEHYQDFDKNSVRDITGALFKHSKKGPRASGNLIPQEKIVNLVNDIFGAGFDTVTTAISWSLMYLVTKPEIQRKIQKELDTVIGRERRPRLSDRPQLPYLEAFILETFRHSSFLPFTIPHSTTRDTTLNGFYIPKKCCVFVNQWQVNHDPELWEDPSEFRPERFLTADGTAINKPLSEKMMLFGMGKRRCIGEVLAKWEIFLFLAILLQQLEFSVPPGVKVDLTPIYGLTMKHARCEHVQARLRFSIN
Kind of data set: Inhibition of CYP1A2 (unknown origin). In kind it is ADME.

Another data set concerns the target Cytochrome P450 3A4 (Homo sapiens, UniProt P08684). Kind of data set: Inhibition of CYP3A4 (unknown origin). The class given is ADME.
A further data set concerns the target Cytochrome P450 2D6 (Homo sapiens, UniProt P10635). The data set can be described thus: Inhibition of CYP2D6 (unknown origin). The class given is ADME.
Data set [4] addresses Casein kinase I isoform epsilon (Homo sapiens, UniProt P49674). The data set can be described thus: Inhibition of casein kinase 1epsilon (unknown origin).
Data set [5] is described as follows: Cmax in mouse at 20 mg/kg, ip. Particulars: in vivo. The class given is ADME, organism-based. Also noted: route intraperitoneal, dose 20 mg/kg.
Another data set has as its target Cytochrome P450 2C9 (Homo sapiens, UniProt P11712). The data set can be described thus: Inhibition of CYP2C9 (unknown origin). In kind it is ADME.
Data set [6] in a line: AUC (last) in mouse at 20 mg/kg, ip. Also noted: time 0 - last, route intraperitoneal, dose 20 mg/kg. The conditions noted are these: in vivo. The class given is ADME, organism-based.
Data set [7] concerns the target Cyclin-dependent kinase 4 (Homo sapiens) (UniProt P11802). Kind of data set: Inhibition of CDK4 (unknown origin) at 10 uM relative to control.
In data set [8] the target is Cyclin-dependent kinase 7 (Homo sapiens) (UniProt P50613). The data set can be described thus: Inhibition of CDK7 (unknown origin) at 10 uM relative to control.
Data set [9] deals with T1, Cyclin-dependent kinase 13. Kind of data set: Inhibition of CDK13 (unknown origin) at 10 uM relative to control.
The target of data set [10] is T3, Cyclin-dependent kinase-like 2 (Homo sapiens) (UniProt Q92772).
T3 sequence (whole entry): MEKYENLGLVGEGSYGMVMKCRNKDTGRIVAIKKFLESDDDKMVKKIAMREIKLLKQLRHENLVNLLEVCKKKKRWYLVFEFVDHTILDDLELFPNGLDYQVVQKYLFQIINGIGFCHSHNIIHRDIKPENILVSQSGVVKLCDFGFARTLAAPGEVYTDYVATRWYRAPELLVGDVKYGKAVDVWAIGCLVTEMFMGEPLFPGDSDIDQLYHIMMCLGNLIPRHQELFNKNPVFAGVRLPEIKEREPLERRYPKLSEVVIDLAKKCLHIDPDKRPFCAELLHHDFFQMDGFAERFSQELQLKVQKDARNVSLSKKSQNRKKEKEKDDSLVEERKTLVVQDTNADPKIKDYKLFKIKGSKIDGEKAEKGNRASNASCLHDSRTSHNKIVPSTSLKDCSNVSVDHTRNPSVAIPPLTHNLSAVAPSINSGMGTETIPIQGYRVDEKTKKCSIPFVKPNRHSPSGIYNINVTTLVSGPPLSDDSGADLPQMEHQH
Kind of data set: Inhibition of CDKL2 (unknown origin) at 10 uM relative to control.

In data set [11] the target is Cyclin-dependent kinase 4/cyclin D1 (Homo sapiens) (UniProt P11802+P24385). The data set can be described thus: Inhibition of CDK4/Cyclin D1 (unknown origin) at 10 uM relative to control. In kind it is protein-complex assay.
The target in data set [12] is Cyclin-dependent kinase 3 (Homo sapiens) (UniProt Q00526). The data set can be described thus: Inhibition of CDK3 (unknown origin) at 10 uM relative to control.
The target in data set [13] is T4, Cyclin-dependent kinase-like 5 (Homo sapiens) (UniProt O76039).
T4 sequence (whole entry): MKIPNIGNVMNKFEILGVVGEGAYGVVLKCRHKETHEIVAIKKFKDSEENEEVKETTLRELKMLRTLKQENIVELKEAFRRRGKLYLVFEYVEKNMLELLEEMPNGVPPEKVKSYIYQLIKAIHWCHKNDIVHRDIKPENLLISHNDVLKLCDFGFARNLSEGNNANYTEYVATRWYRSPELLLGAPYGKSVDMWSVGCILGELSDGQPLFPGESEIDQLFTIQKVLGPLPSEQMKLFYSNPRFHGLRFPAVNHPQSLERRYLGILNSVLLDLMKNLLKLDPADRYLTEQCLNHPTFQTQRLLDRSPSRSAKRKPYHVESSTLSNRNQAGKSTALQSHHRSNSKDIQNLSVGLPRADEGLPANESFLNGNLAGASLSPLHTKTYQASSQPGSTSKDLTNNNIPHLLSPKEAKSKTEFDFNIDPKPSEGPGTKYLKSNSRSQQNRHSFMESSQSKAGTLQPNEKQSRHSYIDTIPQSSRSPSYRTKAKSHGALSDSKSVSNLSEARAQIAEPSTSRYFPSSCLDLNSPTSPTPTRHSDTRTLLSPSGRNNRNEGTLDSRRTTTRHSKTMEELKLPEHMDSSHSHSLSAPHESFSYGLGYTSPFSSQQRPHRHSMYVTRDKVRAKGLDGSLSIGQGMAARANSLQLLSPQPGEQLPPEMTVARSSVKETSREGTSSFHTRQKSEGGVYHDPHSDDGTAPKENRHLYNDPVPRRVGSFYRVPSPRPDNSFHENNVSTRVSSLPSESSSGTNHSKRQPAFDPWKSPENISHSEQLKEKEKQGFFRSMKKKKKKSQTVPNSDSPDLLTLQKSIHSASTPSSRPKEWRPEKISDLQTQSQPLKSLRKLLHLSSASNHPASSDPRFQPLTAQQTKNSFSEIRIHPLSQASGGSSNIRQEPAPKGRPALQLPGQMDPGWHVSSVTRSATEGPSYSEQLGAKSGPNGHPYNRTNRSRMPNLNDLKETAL
The data set can be described thus: Inhibition of CDKL5 (unknown origin) at 10 uM relative to control.

The target in data set [14] is Cyclin-dependent kinase 9 (Homo sapiens) (UniProt P50750). Kind of data set: Inhibition of CDK9 (unknown origin) at 10 uM relative to control.
Data set [15] has as its target Cyclin-dependent kinase-like 3 (Homo sapiens) (UniProt Q8IVW4). Kind of data set: Inhibition of CDKL3 (unknown origin) at 10 uM relative to control.
Data set [16] concerns the target Cyclin-dependent kinase 8 (Homo sapiens) (UniProt P49336). Kind of data set: Inhibition of CDK8 (unknown origin) at 10 uM relative to control.
Data set [17] has as its target Cyclin-dependent kinase 19 (Homo sapiens) (UniProt Q9BWU1). Kind of data set: Inhibition of CDK11 (unknown origin) at 10 uM relative to control.
Data set [18] deals with Cyclin-dependent kinase-like 1 (Homo sapiens) (UniProt Q00532). The data set can be described thus: Inhibition of CDKL1 (unknown origin) at 10 uM relative to control.
For data set [19], the target named is CDK4/Cyclin D3 (Homo sapiens) (UniProt P11802+P30281). Kind of data set: Inhibition of CDK4/Cyclin D3 (unknown origin) at 10 uM relative to control. In kind it is protein-complex assay.
Data set [20] concerns the target Cyclin-dependent kinase 2 (Homo sapiens) (UniProt P24941). The data set can be described thus: Inhibition of CDK2 (unknown origin) at 10 uM relative to control.
The target in data set [21] is Cyclin-dependent kinase 5 (Homo sapiens) (UniProt Q00535). The data set can be described thus: Inhibition of CDK5 (unknown origin) at 10 uM relative to control.

Several values for one entry are separate records, joined by “and”; a condition that tells them apart may be missing. Identical values can stand only once.

Sequence of Cyclin-dependent kinase 9 (Homo sapiens) (P50750 whole entry): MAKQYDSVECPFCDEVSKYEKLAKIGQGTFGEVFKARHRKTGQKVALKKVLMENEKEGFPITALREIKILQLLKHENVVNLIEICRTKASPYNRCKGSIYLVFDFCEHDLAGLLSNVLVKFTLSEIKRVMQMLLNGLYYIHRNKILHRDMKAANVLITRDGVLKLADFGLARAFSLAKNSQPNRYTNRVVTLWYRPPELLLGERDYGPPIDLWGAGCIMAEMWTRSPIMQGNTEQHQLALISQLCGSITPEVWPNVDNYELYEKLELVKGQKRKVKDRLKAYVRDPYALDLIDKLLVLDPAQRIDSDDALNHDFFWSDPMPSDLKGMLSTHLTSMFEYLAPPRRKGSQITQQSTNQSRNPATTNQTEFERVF
Sequence of Cyclin-dependent kinase 7 (Homo sapiens) (P50613 whole entry): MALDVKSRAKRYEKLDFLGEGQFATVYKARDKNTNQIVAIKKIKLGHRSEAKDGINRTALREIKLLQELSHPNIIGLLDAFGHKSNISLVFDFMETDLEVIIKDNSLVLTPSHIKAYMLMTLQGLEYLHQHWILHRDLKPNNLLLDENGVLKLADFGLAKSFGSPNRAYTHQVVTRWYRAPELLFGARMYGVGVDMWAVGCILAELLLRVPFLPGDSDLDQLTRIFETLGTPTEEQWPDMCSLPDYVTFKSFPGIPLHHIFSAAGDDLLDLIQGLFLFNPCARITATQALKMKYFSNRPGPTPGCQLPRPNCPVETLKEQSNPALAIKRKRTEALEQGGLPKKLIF
Sequence of Cyclin-dependent kinase 8 (Homo sapiens) (P49336 whole entry): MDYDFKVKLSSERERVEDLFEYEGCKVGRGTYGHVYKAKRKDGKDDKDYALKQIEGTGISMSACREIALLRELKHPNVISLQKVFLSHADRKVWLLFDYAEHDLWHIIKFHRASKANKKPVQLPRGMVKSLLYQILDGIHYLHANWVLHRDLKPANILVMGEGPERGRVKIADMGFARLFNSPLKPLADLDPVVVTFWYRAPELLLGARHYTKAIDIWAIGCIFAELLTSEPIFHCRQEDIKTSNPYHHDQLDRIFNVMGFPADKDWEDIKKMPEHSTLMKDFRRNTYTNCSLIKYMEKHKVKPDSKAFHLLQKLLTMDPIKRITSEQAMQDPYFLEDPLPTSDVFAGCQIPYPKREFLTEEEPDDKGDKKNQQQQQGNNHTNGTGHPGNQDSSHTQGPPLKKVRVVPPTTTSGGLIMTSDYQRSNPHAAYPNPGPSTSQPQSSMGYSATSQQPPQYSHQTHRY
Sequence of Cyclin-dependent kinase 12 (Q9NYV4 whole entry): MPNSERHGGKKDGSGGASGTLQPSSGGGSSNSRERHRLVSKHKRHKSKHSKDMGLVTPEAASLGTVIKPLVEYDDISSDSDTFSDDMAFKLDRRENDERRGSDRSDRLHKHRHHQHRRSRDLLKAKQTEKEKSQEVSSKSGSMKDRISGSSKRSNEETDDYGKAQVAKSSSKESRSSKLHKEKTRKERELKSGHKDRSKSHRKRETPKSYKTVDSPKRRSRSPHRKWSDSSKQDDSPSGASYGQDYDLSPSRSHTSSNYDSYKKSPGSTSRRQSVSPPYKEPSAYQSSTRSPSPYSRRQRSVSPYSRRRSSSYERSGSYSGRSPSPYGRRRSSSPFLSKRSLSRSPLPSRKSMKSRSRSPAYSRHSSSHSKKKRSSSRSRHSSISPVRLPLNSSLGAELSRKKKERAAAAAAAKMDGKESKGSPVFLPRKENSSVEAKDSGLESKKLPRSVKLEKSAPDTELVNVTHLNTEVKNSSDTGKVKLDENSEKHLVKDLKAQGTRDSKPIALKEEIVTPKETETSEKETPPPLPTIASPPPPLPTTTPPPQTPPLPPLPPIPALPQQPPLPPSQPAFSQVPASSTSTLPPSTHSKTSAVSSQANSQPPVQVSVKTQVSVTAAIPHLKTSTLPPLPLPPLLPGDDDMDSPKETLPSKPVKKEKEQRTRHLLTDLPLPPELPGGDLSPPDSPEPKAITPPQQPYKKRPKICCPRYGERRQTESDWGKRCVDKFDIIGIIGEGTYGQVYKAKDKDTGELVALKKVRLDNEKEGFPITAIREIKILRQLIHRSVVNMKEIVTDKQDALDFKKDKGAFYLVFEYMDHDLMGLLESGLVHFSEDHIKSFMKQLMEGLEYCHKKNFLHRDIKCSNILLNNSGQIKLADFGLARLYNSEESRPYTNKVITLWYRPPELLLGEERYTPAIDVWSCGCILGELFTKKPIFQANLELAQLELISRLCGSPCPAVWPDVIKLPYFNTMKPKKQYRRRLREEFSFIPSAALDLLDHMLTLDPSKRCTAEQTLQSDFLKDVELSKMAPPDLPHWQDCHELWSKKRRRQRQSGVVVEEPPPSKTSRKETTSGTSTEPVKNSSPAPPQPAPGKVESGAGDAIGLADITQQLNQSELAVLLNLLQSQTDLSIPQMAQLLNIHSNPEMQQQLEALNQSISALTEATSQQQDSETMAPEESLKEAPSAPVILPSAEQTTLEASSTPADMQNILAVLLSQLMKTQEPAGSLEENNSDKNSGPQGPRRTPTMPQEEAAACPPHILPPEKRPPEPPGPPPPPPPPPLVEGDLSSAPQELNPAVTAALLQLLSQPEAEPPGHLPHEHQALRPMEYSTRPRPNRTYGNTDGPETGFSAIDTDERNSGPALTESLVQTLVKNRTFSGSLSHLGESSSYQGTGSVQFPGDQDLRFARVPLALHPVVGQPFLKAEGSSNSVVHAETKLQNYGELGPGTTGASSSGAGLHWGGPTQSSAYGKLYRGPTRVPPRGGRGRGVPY
Sequence of Cyclin-dependent kinase 19 (Homo sapiens) (Q9BWU1 whole entry): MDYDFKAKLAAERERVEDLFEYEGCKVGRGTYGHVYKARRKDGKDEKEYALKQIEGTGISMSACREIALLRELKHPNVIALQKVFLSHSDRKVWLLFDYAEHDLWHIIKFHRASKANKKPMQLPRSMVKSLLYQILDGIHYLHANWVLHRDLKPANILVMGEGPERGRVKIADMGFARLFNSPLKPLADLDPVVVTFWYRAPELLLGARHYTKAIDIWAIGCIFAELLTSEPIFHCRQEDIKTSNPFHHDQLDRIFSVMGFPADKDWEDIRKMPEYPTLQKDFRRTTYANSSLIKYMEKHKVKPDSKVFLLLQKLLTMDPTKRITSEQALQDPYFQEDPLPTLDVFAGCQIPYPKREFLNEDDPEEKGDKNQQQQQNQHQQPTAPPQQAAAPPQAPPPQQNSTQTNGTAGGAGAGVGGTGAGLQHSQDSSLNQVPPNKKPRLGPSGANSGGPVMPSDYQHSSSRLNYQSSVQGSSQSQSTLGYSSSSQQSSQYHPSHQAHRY
Sequence of Cyclin-dependent kinase 3 (Homo sapiens) (Q00526 whole entry, looked up): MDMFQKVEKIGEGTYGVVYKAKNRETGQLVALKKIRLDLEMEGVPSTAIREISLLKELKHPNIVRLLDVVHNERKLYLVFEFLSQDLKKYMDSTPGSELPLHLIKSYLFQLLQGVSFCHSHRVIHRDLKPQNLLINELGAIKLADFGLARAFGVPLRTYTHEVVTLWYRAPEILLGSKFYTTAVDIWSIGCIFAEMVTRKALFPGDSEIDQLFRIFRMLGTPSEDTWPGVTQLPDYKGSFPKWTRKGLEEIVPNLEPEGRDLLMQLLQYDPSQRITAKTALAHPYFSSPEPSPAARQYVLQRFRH
Sequence of Cytochrome P450 3A4 (P08684 whole entry): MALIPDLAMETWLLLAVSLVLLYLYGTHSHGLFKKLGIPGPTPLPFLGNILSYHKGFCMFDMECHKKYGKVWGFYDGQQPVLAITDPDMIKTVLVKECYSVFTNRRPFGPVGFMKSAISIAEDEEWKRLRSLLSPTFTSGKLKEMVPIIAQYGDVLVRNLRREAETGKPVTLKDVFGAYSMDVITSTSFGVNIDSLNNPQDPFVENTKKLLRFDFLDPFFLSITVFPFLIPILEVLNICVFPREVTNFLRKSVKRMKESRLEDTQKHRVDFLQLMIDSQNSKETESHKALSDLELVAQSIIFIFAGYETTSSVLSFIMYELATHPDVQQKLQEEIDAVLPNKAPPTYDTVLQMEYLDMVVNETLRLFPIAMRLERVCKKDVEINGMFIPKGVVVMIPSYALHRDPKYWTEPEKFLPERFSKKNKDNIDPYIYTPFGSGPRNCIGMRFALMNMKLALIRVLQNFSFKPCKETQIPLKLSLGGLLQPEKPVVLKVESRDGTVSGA
Sequence of Cyclin-dependent kinase-like 1 (Homo sapiens) (Q00532 whole entry): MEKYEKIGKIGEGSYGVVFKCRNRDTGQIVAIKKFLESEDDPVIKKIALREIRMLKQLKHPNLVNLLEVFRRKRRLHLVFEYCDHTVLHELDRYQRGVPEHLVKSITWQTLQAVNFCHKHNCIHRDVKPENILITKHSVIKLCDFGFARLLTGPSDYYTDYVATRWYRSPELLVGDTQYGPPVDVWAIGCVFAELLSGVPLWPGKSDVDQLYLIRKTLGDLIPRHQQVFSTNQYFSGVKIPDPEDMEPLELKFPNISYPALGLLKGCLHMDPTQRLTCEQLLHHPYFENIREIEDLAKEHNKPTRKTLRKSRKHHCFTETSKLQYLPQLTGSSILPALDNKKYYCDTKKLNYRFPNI
Sequence of Casein kinase I isoform epsilon (P49674 whole entry, canonical isoform): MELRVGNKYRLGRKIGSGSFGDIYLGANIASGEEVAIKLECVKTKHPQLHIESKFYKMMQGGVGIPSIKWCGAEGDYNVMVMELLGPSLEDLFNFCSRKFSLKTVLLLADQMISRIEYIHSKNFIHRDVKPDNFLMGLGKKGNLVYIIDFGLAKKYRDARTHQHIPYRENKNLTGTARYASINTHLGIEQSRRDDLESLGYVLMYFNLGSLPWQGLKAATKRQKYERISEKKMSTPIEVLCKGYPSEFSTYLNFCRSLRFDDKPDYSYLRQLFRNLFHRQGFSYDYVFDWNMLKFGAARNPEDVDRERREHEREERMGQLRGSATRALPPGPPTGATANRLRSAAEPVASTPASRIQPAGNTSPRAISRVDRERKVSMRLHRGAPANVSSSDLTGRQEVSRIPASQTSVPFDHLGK

For orientation: IC50 means the midpoint of a concentration-inhibition curve. Broadly, the Kd is the constant that tells how readily two partners part at equilibrium. Low values mean tighter binding, high ones weaker binding. Regarding `Fc1ccc2[nH]c(CNc3nc(N4CCOCC4)nc4c3ncn4-c3cscn3)nc2c1F`, the half-inhibitory concentration (IC50) in [1] was determined as 870 nM; in data set [4], 1280 nM. Moreover, the Kd in data set [2] was found to be 6 nM; in data set [3] it was 18 nM. Also, the “inhibition (INH)” value at Cytochrome P450 1A2 amounted to 97%; on Cytochrome P450 3A4, 89%; against Cytochrome P450 2D6, 57%.
Usually Cmax stands for the highest concentration seen after dosing. The term AUC(0-t) denotes exposure summed from dosing to a finite time, without extrapolation to infinity. A low value points to low exposure. Turning to `Cn1cc(-n2cnc3c(NCc4nc5cc(Cl)c(Cl)cc5[nH]4)nc(N4CCOC[C@H]4CO)nc32)cn1`, the IC50 in data set [1] amounted to 6070 nM; in data set [4], 5360 nM. The Cmax in data set [5] is 1430 ng/mL and 2.7 µM. The “inhibition (INH)” value is listed as 39% at Cytochrome P450 1A2, 54% at Cytochrome P450 3A4, 29% at Cytochrome P450 2D6 and 54% on Cytochrome P450 2C9. Moreover, the AUC(0-t) in [6] is 10 µM·h.
As usually defined, the inhibition is the percentage by which the read-out fell short of the control. Read a high inhibition as a strong effect. For the molecule `COc1cc2nc(CNc3nc(N4CCOCC4)nc4c3ncn4-c3cnn(C)c3)[nH]c2cc1Cl`, the inhibition came to 99% in data set [7], 98% in [8] and 12% in data set [9]. The equilibrium dissociation constant (Kd) in data set [2] came to 2 nM; in data set [3] it was 38 nM. The half-inhibitory concentration (IC50) in data set [4] worked out at 2620 nM.
For `Cc1cc(-n2cnc3c(NCc4nc5c(F)c(F)ccc5[nH]4)nc(N4CCOCC4)nc32)no1`, the inhibition in data set [10] worked out at 2%; in [8], 69%; in [9], 100%; in data set [11] it was 99%; in [12], 8%; in [13] it was 1%. In addition, the inhibition turned out to be 64% in data set [14]; 0% in [15]; 40% in data set [16]; 23% in data set [17]; 16% in [18]; 99% in [19]. This molecule also gave an inhibition in data set [20] of 3%. Moreover, the “inhibition (INH)” value stood at 5% against Cytochrome P450 1A2, 55% against Cytochrome P450 3A4, 2% at Cytochrome P450 2D6 and 23% at Cytochrome P450 2C9.
In the case of `Cn1cc(-n2cnc3c(NCc4nc5cc(F)c(F)cc5[nH]4)nc(N4CCOCC4)nc32)cn1`, the “inhibition (INH)” value against Cytochrome P450 1A2 is listed as 5%; against Cytochrome P450 3A4, 55%; on Cytochrome P450 2D6, 2%; against Cytochrome P450 2C9 it was 23%.
On to `FC(F)n1cc(-n2cnc3c(NCc4nc5cc(Cl)c(Cl)cc5[nH]4)nc(N4CCOCC4)nc32)cn1`, for which the IC50 in data set [1] came out at 1260 nM; in data set [4] it was 709 nM. Also, the Kd in data set [2] was 9 nM; in data set [3] it was 310 nM.
On to `Fc1cccc(-n2cnc3c(NCc4nc5c(F)c(F)ccc5[nH]4)nc(N4CCOCC4)nc32)c1`, for which the inhibition in [10] was found to be 0%; in data set [8], 72%; in data set [9], 100%; in data set [11], 97%; in [12], 6%; in [13] it was 0%. Besides, the inhibition amounted to 69% in data set [14]; 5% in [15]; 22% in data set [16]; 0% in data set [17]; 8% in [18]; 95% in data set [19]. For the same molecule, the inhibition in [20] worked out at 1%; in [21], 18%.
As for `Cn1cc(-n2cnc3c(NCc4nc5c(F)c(F)ccc5[nH]4)nc(N4CCOCC4)nc32)cn1`, the inhibition came to 0% in data set [10]; 69% in data set [8]; 100% in data set [9]; 99% in [11]; 3% in data set [12]; 0% in data set [13]. The inhibition was 43% in data set [14]; 0% in data set [15]; 0% in [16]; 0% in data set [17]; 16% in data set [18]; 99% in [19]. In addition, the inhibition in [20] came to 6%. For the same molecule, the “inhibition (INH)” value at Cytochrome P450 1A2 was 10%; at Cytochrome P450 3A4, 56%; at Cytochrome P450 2D6 it was -3%; against Cytochrome P450 2C9, 23%.
In the case of `Cn1cc(-n2cnc3c(NCc4nc5cc(Cl)c(Cl)cc5[nH]4)nc(N4CCOC[C@@H]4CO)nc32)cn1`, the IC50 in data set [1] stood at 333 nM; in [4], 145 nM. For the same molecule, the “inhibition (INH)” value worked out at 42% on Cytochrome P450 1A2, 77% against Cytochrome P450 3A4, 42% against Cytochrome P450 2D6 and 69% against Cytochrome P450 2C9.
